The values that follow come from patent US20220213030A1, “AMINOGUANIDINE HYDRAZONES AS RETROMER STABILIZERS USEFUL FOR TREATING NEUROLOGICAL DISEASES” (OSPEDALE SAN RAFFAELE SRL, priority 2019, published 2022).

The assay has as its system G93A aggregates (SOD1). Briefly: Blue-native gel electrophoresis of SOD1 aggregates in G93A mice. The format is in vivo, mouse. The following applies: 10 mg/kg daily, day 83 to day 103. The protocol: SOD1 mutations increase the propensity of this protein to aggregate in cells (Johnston 2000). We checked whether compound 2a could reduce the accumulation of G93A aggregates in vivo. Starting at post-natal day 83, we injected G93A mice and WT littermates daily with compound 2a (10 mg/kg). We scored motor performances in both vehicle- and compound 2a-treated G93A mice until day 103. […] At day 103, we resolved SC protein extracts by blue-native polyacrylamide gel electrophoresis, and probing these gels with anti-SOD1 antibodies we observed high molecular weight smears in G93A mice that were completely absent in WT litters. The intensity of these high molecular weight entities was lowered in mice treated with lead 2a (FIG. 14B, C). Altogether, retromer stabilization by compound 2a increases lysosomal homeostasis in vitro and in vivo, decreases poly ubiquitination of proteins, and therefore diminishes levels of G93A aggregation.
G93A mice and their WT litters were injected daily with vehicle or compound 2a (10 mg/kg, from day 83 to day 103). Lumbar spinal cords dissected from saline perfused mice were lysed in Tris-HCl 10 mM pH 8, EDTA 1 mM pH 8, NaCl 100 mM, NP40 1% and protease inhibitor cocktail (Sigma). Extracts were obtained using a tight-fitting glass Potter tissue grinder (1 ml; Wheaton). We incubated 250 μl of each extract with 100 mM Iodoacetamide (Sigma). […]

As to `N=C(N)NN=Cc1cccc(C=NNC(=N)N)c1` [Compound 2a, 1,3-Bis-amino guanidine phenyl hydrazone], the “intensity of high molecular weight SOD1 entities” value is “lowered”.
